According to patent publication US20240366649A1, “4-ETHYNYL-3-HYDROXY-TETRAHYDROFURANYL-ADENINE PHOSPHORAMIDATES AND RELATED COMPOUNDS AND THEIR USE IN TREATING MEDICAL CONDITIONS” (ROME THERAPEUTICS, INC., priority 2021, published 2024):
Values joined by “and” are separate entries in the source; they are usually repeats but may differ in a detail not shown here. Equal entries are not always repeated.

How the values were obtained:
Format in all cases: cell-based
[1] = system: IFN production in THP1 TREX1 KO cells; assay: Cellular assay for altering IFN production in THP1 TREX1 KO cells; details: for change in IFN levels (figure): FIG. 6-8, % induction versus compound concentration; for EC50 / IC50: Homo sapiens; for Concentration at Max Induct.: lowest concentration at which the maximum-fold IFN induction was observed; for Maximum IFN Induction: maximum-fold IFN induction, 1 μM 5-aza-2′-deoxycytidine; for IC50: inhibitors of IFN
Description: (§1) THP1-Dual™ KO-TREX1 cells were purchased from Invivogen (cat #thpd-kotrex). The THP1-Dual™ KO-TREX1 cells were cultured in RPMI 1640, 10% heat-inactivated fetal bovine serum, 25 mM HEPES, 10 μg/mL Blasticidin, and […] Zeocin. THP1-Dual™ KO-TREX cells were treated with a dose titration of test compound in the presence of 1 μM 5-aza-2′-deoxycytidine (Sigma, cat #189825). Type 1 Interferon and cell viability were assessed after five days of treatment.
Stock solution of test compound was prepared in DMSO followed by a three-fold dilution in DMSO. Additional 50× dilution was prepared in cell culture media for each dilution. 10 μL of diluted test compound was then added to a 384-well plate.
(§2) THP1-Dual™ KO-TREX1 cells were treated with 1 μM 5-aza-2′-deoxycytidine. THP1-Dual™ KO-TREX1 cells (50 μL) were added to each well of the 384-well plate containing test compound titration at 10,000 cells/well. Cells were incubated at 37° C., 5% CO2 in a humidified incubator for five days. On day five, 20 μL of cell supernatant was transferred to a 384-well, white-walled plate, followed by addition to each well of 50 μL of QUANTI-LUC solution containing stabilizer. Luminescence was detected on a plate reader according to manufacturer's instructions.
(§3) For certain compounds, the assay was run in a 96-well format, with the following modifications: • 190 μL, instead of 50 μL, of cells were added to each well, to provide 50,000 cells/well, instead of 10,000 cells/well, • Cells were incubated for 6 days, instead of 5 days, • 25 μL, instead of 20 μL, of cell supernatant was added to the white-walled plate for QUANT-LUC treatment; and • 25 μL, instead of 30 μL, of CellTiter-Glo was added to assess cell viability.
Percent inhibition of interferon was calculated using the following analysis: (Average DMSO-Sample)/(Average DMSO-Average 30 μM control reagent)*100. The control reagent for inhibition of interferon was a specific nucleoside reverse-transcriptase inhibitor with molecular weight <600 a.m.u. Percent induction of interferon was calculated using the following analysis: (Sample-Average DMSO)/(10 μM control reagent-Average DMSO)*100. The control reagent for induction of interferon was compound 8 (4′-ethynyl-2-chloro-2′-deoxyadenosine).

[2] = molecular target: T1, LINE1 reverse transcriptase (Homo sapiens, UniProt O00370); assay: Transient artificial-intron Cis LINE1 reporter assay; parameters: expressed in transfected cells; details: HEK 293 cells; ratio FLuc/RLuc reports LINE1 activity; tested up to 100 μM; read-out: IC50 for inhibiting FLuc luminescence
Description: Intron-disrupted Firefly luciferase (FLuc) expression cassettes were generated as described by Xie, Y. et al. “Characterization of L1 retrotransposition with high-throughput dual-luciferase assays,” Nucleic Acid Res. (2011) Vol. 39, No. 3, e16. In addition, the plasmid contained an intact Renilla luciferase (RLuc) expression cassette on the vector backbone, in order to normalize transfection efficiency and measure potential cell toxicity.
HEK 293 cells were seeded in 96-well plates at 1,000 cells/well in 55 μL and grown for 24 hours. Cells were transfected with FuGeneHD (Promega) following the manufacturer's protocol. Each well received 0.133 ng plasmid, 0.4 μL FuGeneHD reagent, and 4.5 μL GlutaMAX-I-supplemented Opti-MEM I reduced-serum medium (Invitrogen). Cells were simultaneously treated with test compound serially diluted starting at 100 μM in a 3-fold dilution dose response.
Luminescence was measured using the Dual-Glo Luciferase Assay System (Promega) following the manufacturer's instructions. The ratio between FLuc and RLuc gene expression was used to report LINE1 activity.

[3] = molecular target: T1, LINE1 reverse transcriptase; assay: Stable artificial-intron Cis LINE1 reporter assay; parameters: expressed in transfected cells; details: HeLa L1 artificial-intron reporter cells, doxycycline-induced, 72 h, Firefly luciferase activity
Text: A stable HeLa Tet-On 3G (Takara, cat no 631183) cell line expressing a bi-directional inducible LINE1 construct was generated as described in Xie, Y. et al. “Cell division promotes efficient retrotransposition in a stable L1 reporter cell line,” Mobile DNA (2013) 4:10. Single cell clones were screened for high Luciferase expression and the highest expression Firefly expressing clone was chosen for compound testing.
Test compounds were serially diluted in DMSO and spotted in 96-well plates. Subsequently the HeLa L1 artificial-intron reporter cells were plated into the compound-containing wells (8,000 cells/well), and the cells were induced for reporter expression with doxycycline (Sigma cat no D9891) at a final concentration of 500 ng/mL. Luminescence was measured 72 h after plating using the Dual-Glo Luciferase Assay System (Promega cat no E2940) following the manufacturer's instructions. The Firefly Luciferase activity (normalized against its activity in a control well without test compound) was used to report LINE1 activity.

[4] = system: THP1-Dual™ KO-TREX1 cells; assay: CellTiter-Glo cell viability in THP1-Dual KO-TREX1 cells; details: Homo sapiens, 120 h, CellTiter-Glo inhibition of cell viability, after five days of treatment, read-out: CTG IC50
Description: as §1, §2, §3
The remaining cells were assessed for cell viability by adding 30 μl of CellTiter-Glo (Promega, G9683) solution to each well, and placed on a shaker for 10 minutes at room temperature. Luminescence was detected on a plate reader, according to manufacturer's instructions. Percent inhibition of cell viability using CellTiter-Glo was calculated using the following analysis: (Average DMSO-Sample)/(Average DMSO-Average 20 μM control reagent)*100. The control reagent was Z-Leu-Leu-leucinal (see, for example, https://pubchem.ncbi.nlm.nib.gov/compound/462382).

[5] = THP-1, 120 h, inducers of IFN, in the presence of 1 μM 5-aza-2′-deoxycytidine, five days
[6] = THP-1, another experiment testing the same compound (not the one of Table 7)
[7] = THP-1, 120 h, in the presence of 1 μM 5-aza-2′-deoxycytidine, five days

T1 sequence (O00370 whole entry, looked up): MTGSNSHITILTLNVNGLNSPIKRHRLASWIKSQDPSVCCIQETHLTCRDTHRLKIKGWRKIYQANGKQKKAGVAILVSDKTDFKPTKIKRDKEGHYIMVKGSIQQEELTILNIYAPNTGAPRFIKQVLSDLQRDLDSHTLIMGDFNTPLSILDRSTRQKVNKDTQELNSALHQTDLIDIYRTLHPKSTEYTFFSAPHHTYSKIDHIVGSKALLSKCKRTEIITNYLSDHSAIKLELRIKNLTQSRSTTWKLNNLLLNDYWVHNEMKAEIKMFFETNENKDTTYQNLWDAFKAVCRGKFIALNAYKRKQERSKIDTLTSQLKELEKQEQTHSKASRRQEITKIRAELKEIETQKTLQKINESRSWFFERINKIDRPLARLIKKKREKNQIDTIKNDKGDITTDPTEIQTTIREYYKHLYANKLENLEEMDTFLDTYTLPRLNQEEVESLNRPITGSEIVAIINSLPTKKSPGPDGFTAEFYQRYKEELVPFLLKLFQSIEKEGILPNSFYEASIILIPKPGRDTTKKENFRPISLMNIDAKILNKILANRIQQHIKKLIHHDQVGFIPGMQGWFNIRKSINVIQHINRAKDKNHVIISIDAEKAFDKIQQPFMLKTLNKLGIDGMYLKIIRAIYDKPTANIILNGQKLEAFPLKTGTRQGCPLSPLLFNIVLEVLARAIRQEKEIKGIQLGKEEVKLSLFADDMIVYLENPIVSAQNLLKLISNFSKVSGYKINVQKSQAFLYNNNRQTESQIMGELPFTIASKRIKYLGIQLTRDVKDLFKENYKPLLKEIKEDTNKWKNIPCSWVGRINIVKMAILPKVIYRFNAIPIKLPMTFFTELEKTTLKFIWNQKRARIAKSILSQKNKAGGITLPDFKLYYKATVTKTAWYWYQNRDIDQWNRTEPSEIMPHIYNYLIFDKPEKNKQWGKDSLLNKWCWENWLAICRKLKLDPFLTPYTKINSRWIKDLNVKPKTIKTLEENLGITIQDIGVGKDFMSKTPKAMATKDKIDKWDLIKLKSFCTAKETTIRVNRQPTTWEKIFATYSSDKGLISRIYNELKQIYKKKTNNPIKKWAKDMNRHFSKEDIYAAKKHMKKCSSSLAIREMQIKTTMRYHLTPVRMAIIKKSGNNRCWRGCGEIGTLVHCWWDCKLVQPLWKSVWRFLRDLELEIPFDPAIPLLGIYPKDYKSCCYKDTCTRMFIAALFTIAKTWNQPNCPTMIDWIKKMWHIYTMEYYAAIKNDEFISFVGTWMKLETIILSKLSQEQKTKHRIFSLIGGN

Row | SMILES | IC50 [2] [µM] | IC50 [3] | EC50 [1, 5] [µM] | IC50 [4] [µM] | other results
1 | C#C[C@]1(CO)O[C@@H](n2cnc3c(N)ncnc32)C[C@@H]1O [4′-ethynyl-2′-deoxyadenosine, reference compound] | 0.041 | ≤ 0.05 µM |  |  | change in IFN levels (figure) [1]: induction of IFN
2 | Cc1cn([C@H]2C[C@H](N=[N+]=[N-])[C@@H](CO)O2)c(=O)[nH]c1=O [AZT (zidovudine), Zidovudine, reference compound] | > 100 | > 0.5 µM |  |  | 
3 | C#C[C@]1(CO)O[C@@H](n2cnc3c(N)nc(Cl)nc32)C[C@@H]1O [Compound 8, 4′-ethynyl-2-chloro-2′-deoxyadenosine, reference compound] | 0.0083 | ≤ 0.05 µM |  |  | change in IFN levels (figure) [1]: induction of IFN
4 | C#C[C@]1(CO[P@@](=O)(N[C@@H](C)C(=O)OC(C)C)Oc2ccccc2)O[C@@H](n2cnc3c(N)nc(Cl)nc32)C[C@@H]1O [Compound I-1, Isopropyl ((S)-(((2R,3S,5R)-5-(6-amino-2-chloro-9H-purin-9-yl)-2-ethynyl-3-hydroxytetrahydrofuran-2-yl)methoxy)(phenoxy)phosphoryl)-L-alaninate] |  | 0.05 to 0.5 µM and ≤ 0.05 µM | 1 to 10 | > 10 | Concentration at Max Induct. [1]: 10 µM; Maximum IFN Induction ([1]; five days): >> (values from 1.50 to 2.00)
5 | C#C[C@]1(CO[P@@](=O)(N[C@@H](C)C(=O)OC(C)C)Oc2ccccc2)O[C@@H](n2cnc3c(N)nc(F)nc32)C[C@@H]1O [Compound I-18] |  | 0.05 to 0.5 µM | > 10 |  | 
6 | C#C[C@]1(COP(=O)(O)N[C@@H](C)C(=O)OC(C)C)O[C@@H](n2cnc3c(N)nc(Cl)nc32)C[C@@H]1O [Compound I-47, [(2R,3S,5R)-5-(6-amino-2-chloropurin-9-yl)-2-ethynyl-3-hydroxyoxolan-2-yl]methoxy([(2S)-1-isopropoxy-1-oxopropan-2-yl]amino)phosphinic acid] |  | ≤ 0.05 µM | 1 to 10 | > 10 | EC50 ([1]; THP-1, experiment depicted in FIG. 11 / FIG. 12): < 1 µM; EC50 [1, 6]: > 10 µM; Concentration at Max Induct. [1]: 10 µM; Maximum IFN Induction ([1]; five days): >>> (values greater than 2.00)
7 | C#C[C@]1(COP(=O)(O)N[C@H](C)C(=O)OC(C)C)O[C@@H](n2cnc3c(N)nc(Cl)nc32)C[C@@H]1O [Compound I-48] |  | ≤ 0.05 µM | 1 to 10 | > 10 | Concentration at Max Induct. [1]: 10 µM; Maximum IFN Induction ([1]; five days): > (values from 1.00 to less than 1.50)
8 | C#C[C@]1(COP(=O)(O)N[C@@H](C)C(=O)OC(C)C)O[C@@H](n2cnc3c(N)nc(F)nc32)C[C@@H]1O [Compound I-49] |  | ≤ 0.05 µM | > 10 |  | 
9 | C#C[C@]1(COP(=O)(O)N[C@H](C)C(=O)OC(C)C)O[C@@H](n2cnc3c(N)nc(F)nc32)C[C@@H]1O [Compound I-50] |  | 0.05 to 0.5 µM |  |  | 
10 | C#C[C@]1(CO[P@](=O)(N[C@@H](C)C(=O)OC(C)C)Oc2ccccc2)O[C@@H](n2cnc3c(N)nc(F)nc32)C[C@@H]1O [Compound I-54] |  | ≤ 0.05 µM | < 1 | > 10 | EC50 [1, 6]: > 10 µM
11 | C#C[C@]1(COP(=O)(N[C@@H](C)C(=O)OC(C)C)OCOC(=O)OC(C)C)O[C@@H](n2cnc3c(N)nc(Cl)nc32)C[C@@H]1O (stereo partly drawn) [I-14 and I-15, isopropyl (2S)-2-({[(2R,3S,5R)-5-(6-amino-2-chloropurin-9-yl)-2-ethynyl-3-hydroxyoxolan-2-yl]methoxy([(isopropoxycarbonyl)oxy]methoxy)phosphoryl}amino)propanoate] |  | > 0.5 µM |  |  | 
12 | C#C[C@@]12COP(=O)(OC(C)C)O[C@H]1C[C@H](n1cnc3c(N)nc(Cl)nc31)O2 (some centres unmarked) [IV-1] |  | 0.05 to 0.5 µM |  |  | 
13 | C#C[C@@]12COP(=O)(N[C@H](C)C(=O)OC(C)C)O[C@H]1C[C@H](n1cnc3c(N)nc(Cl)nc31)O2 (some centres unmarked) [IV-5] |  | 0.05 to 0.5 µM | > 10 |  | 
14 | C#C[C@@]12COP(=O)(N[C@@H](C)C(=O)OC(C)C)O[C@H]1C[C@H](n1cnc3c(N)nc(Cl)nc31)O2 (stereo partly drawn) [IV-6, isopropyl (2S)-2-{[(4aR,6R,7aS)-6-(6-amino-2-chloropurin-9-yl)-4a-ethynyl-2-oxo-tetrahydro-2lambda5-furo[3,2-d][1,3,2]dioxaphosphinin-2-yl]amino}propanoate] |  | 0.05 to 0.5 µM |  | 3.1 | IC50 [1, 7]: < 1 µM
15 | C#C[C@@]12COP(=O)(OC(C)C)O[C@H]1C[C@H](n1cnc3c(N)nc(F)nc31)O2 (some centres unmarked) [IV-10] |  | ≤ 0.05 µM |  |  | 
16 | C#C[C@@]12COP(=O)(N[C@H](C)C(=O)OC(C)C)O[C@H]1C[C@H](n1cnc3c(N)nc(F)nc31)O2 (some centres unmarked) [IV-12] |  | 0.05 to 0.5 µM |  | > 10 | IC50 [1, 7]: 1 to 5 µM
17 | C#C[C@@]12COP(=O)(N[C@@H](C)C(=O)OC(C)C)O[C@H]1C[C@H](n1cnc3c(N)nc(F)nc31)O2 (some centres unmarked) [IV-13] |  | 0.05 to 0.5 µM |  | 2.5 | IC50 [1, 7]: < 1 µM
18 | Nc1ccn([C@H]2CO[C@@H](CO)S2)c(=O)n1 [apricitabine] | > 100 |  |  |  | 
19 | Nc1ccn([C@@H]2CS[C@H](CO)O2)c(=O)n1 [lamivudine (3TC), Lamivudine, reference compound] | > 100 | > 0.5 µM |  |  | 
20 | Nc1nc(=O)c2ncn([C@@H]3C[C@H](CO)[C@H]3CO)c2[nH]1 [lobucavir, reference compound] | > 100 | > 0.5 µM |  |  | 
